Laboratory results published in publication PMC4102417 (PLoS Neglected Tropical Diseases, 2014).
Several values for one entry are separate records, joined by “and”; a condition that tells them apart may be missing. Identical values can stand only once. Counter-ions that a name gives are not always drawn. Like-named read-outs stand apart in the source and are kept apart here.

Assays:
[1] = system: T. cruzi (Tulahuen strain); assay: microbe, parasite or virus in culture; format: cell-based, Trypanosoma cruzi; conditions: for activity at 10 µM: read-out: T. cruzi % growth @ 10 uM (Amastigotes)
Procedure, shortened: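 Tulahuen parasites expressing beta-galactosidase were added (1×10^4 trypomastigotes/well) to 3T3 fibroblasts plated 24 h earlier, 4 h before compound (10 µM final).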

[2] = system: 3T3 fibroblast cells; assay: cells; format: cell-based, murine; conditions: for activity at 10 µM: Mus musculus, NIH3T3, 72 h, read-out: Mammalian (3T3) cell % growth at 10 uM
[3] = Trypanosoma cruzi, TULAHUEN, Fibroblast, 120 h, 10 uM, Table S2
[4] = Trypanosoma cruzi, TULAHUEN, Fibroblast, Table S2, amastigotes, read-out: T. cruzi EC50
[5] = Trypanosoma cruzi, TULAHUEN, Fibroblast, 120 h, 10 uM, Table S1
[6] = Trypanosoma cruzi, TULAHUEN, Fibroblast, read-out: T. cruzi EC50

SMILES | activity at 10 µM [1, 3] | activity at 10 µM ([2]; 10 uM, Table S2) | further results
COc1c(C)c2c(c(O)c1CC=C(C)CCC(=O)O)C(=O)OC2 [MYCOPHENOLIC ACID, 6-(4-hydroxy-6-methoxy-7-methyl-3-oxo-1,3-dihydro-2-benzofuran-5-yl)-4-methylhex-4-enoic acid] | 12.2% | 97.2% | EC50 [1, 4]: 320 nM
Clc1ccc(COC(Cn2ccnc2)c2ccc(Cl)cc2Cl)c(Cl)c1 (centres unmarked) [Miconazole, 1-[2-(2,4-dichlorophenyl)-2-[(2,4-dichlorophenyl)methoxy]ethyl]-1H-imidazole] | 0.4% | 100% | 
CCN(CC)C(=S)SSC(=S)N(CC)CC [N,N-diethyl[(diethylcarbamothioyl)disulfanyl]carbothioamide] |  |  | activity at 10 µM [1, 5]: 0.3%; activity at 10 µM ([2]; 10 uM, Table S1): 0.1%
COC(=O)C1=C(C)NC(C)=C(C(=O)OCCN(C)Cc2ccccc2)C1c1cccc([N+](=O)[O-])c1 (centres unmarked) [NICARDIPINE, 3-{2-[benzyl(methyl)amino]ethyl} 5-methyl 2,6-dimethyl-4-(3-nitrophenyl)-1,4-dihydropyridine-3,5-dicarboxylate] | 2% | 99.8% | EC50 [1, 4]: 5850 nM; EC50 [1, 6]: 5900 nM
CC(CC(O)C1OC1(C)C)C1CCC2(C)C3=CCC4C(C)(C)C(=O)CCC4(C)C3CCC12C (centres unmarked) [NILOTICIN, 14-[4-(3,3-dimethyloxiran-2-yl)-4-hydroxybutan-2-yl]-2,6,6,11,15-pentamethyltetracyclo[8.7.0.0^{2,7}.0^{11,15}]heptadec-9-en-5-one] | 2.2% | 100% | 
NC(=O)c1cc([N+](=O)[O-])cc([N+](=O)[O-])c1 [NITROMIDE, 3,5-dinitrobenzamide] |  |  | T. cruzi % growth @ 10 uM (Amastigotes) ([1]; 10 uM, Table S2): 1.9%; EC50 ([1]; Table S2, amastigotes, read-out: T. cruzi EC50): 4800 nM; Mammalian (3T3) cell % growth at 10 uM ([2]; 10 uM, Table S2): 97.2%
CNCCC=C1c2ccccc2CCc2ccccc21 [NORTRIPTYLINE, methyl(3-{tricyclo[9.4.0.0^{3,8}]pentadeca-1(15),3,5,7,11,13-hexaen-2-ylidene}propyl)amine] |  |  | activity at 10 µM ([1]; Trypanosoma cruzi, TULAHUEN, Fibroblast, 120 h): 9.7%; EC50 ([1]; Trypanosoma cruzi, TULAHUEN, Fibroblast, read-out: T. cruzi EC50 (nM)): 5180 nM; activity at 10 µM [2]: 100%
CC(C1OC(C)(C)C(O)C1O)C1CCC2(C)C3=CCC4C(C)(C)C(=O)CCC4(C)C3CCC12C (centres unmarked) [ODORATONE, 14-[1-(3,4-dihydroxy-5,5-dimethyloxolan-2-yl)ethyl]-2,6,6,11,15-pentamethyltetracyclo[8.7.0.0^{2,7}.0^{11,15}]heptadec-9-en-5-one] | 9.9% | 92.7% | 
COC1CC(OC2C(C)C(=O)OC(C)C(C)C(O)C(C)C(=O)C3(CO3)CC(C)C(OC3OC(C)CC(N(C)C)C3O)C2C)OC(C)C1O (centres unmarked) [OLEANDOMYCIN PHOSPHATE, 14-{[4-(dimethylamino)-3-hydroxy-6-methyloxan-2-yl]oxy}-6-hydroxy-12-[(5-hydroxy-4-methoxy-6-methyloxan-2-yl)oxy]-5,7,8,11,13,15-hexamethyl-1,9-dioxaspiro[2.13]hexadecane-4,10-dione; phosphoric acid] | 15.7% | 100% | 
CCCCC1C(=O)N(c2ccccc2)N(c2ccc(O)cc2)C1=O (centres unmarked) [OXYPHENBUTAZONE, 4-butyl-1-(4-hydroxyphenyl)-2-phenylpyrazolidine-3,5-dione] | 3.7% | 72.8% | EC50 [1, 6]: 12000 nM
CC(=O)OC1C(=O)C2(C)C(O)CC3OCC3(OC(C)=O)C2C(OC(=O)c2ccccc2)C2(O)CC(OC(=O)C(O)C(NC(=O)c3ccccc3)c3ccccc3)C(C)=C1C2(C)C (centres unmarked) [PACLITAXEL, 4,12-bis(acetyloxy)-1,9-dihydroxy-15-{[2-hydroxy-3-phenyl-3-(phenylformamido)propanoyl]oxy}-10,14,17,17-tetramethyl-11-oxo-6-oxatetracyclo[11.3.1.0^{3,10}.0^{4,7}]heptadec-13-en-2-yl benzoate] |  |  | activity at 10 µM [1, 5]: 0.2%; activity at 10 µM ([2]; 10 uM, Table S1): 58.1%
COc1cc2c(cc1OC)-c1cc3ccc(OC)c(OC)c3c[n+]1CC2.[Cl-] [PALMATINE, 3,4,10,11-tetramethoxy-7,8-dihydro-6000000l^5-azatetraphen-6-ylium l^3-chloridyl] |  |  | T. cruzi % growth @ 10 uM (Amastigotes) ([1]; 10 uM, Table S2): 8.1% and 11.5%; Mammalian (3T3) cell % growth at 10 uM ([2]; 10 uM, Table S2): 100.0% and 95.9%
COc1ccc(Cc2nccc3cc(OC)c(OC)cc23)cc1OC [PAPAVERINE, 1-[(3,4-dimethoxyphenyl)methyl]-6,7-dimethoxyisoquinoline hydrochloride] | 8.4% | 93.1% | 
NCC(=O)c1ccccc1 [PHENACYLAMINE, 2-amino-1-phenylethan-1-one hydrochloride] | 4.8% | 85.5% | 
CCCCCCCCCCCCCC(=O)O[C@@H]1[C@@H](C)[C@@]2(O)[C@@H](C=C(CO)C[C@]3(O)C(=O)C(C)=C[C@@H]23)[C@@H]2C(C)(C)[C@]12OC(C)=O [PHORBOL MYRISTATE ACETATE, (1S,2S,6R,10S,11R,13S,14R,15R)-13-(acetyloxy)-1,6-dihydroxy-8-(hydroxymethyl)-4,12,12,15-tetramethyl-5-oxotetracyclo[8.5.0.0^{2,6}.0^{11,13}]pentadeca-3,8-dien-14-yl tetradecanoate] | 5.6% | 89.2% | 
COc1cc(O)c2c(c1)C(=O)c1cc(C)cc(O)c1C2=O [PHYSCION, 1,8-dihydroxy-3-methoxy-6-methyl-9,10-dihydroanthracene-9,10-dione] | 9.2% | 96.8% | 
CN1CCC(=C2c3ccccc3Sc3ccccc32)CC1 [PIMETHIXENE, 1-methyl-4-(9H-thioxanthen-9-ylidene)piperidine] | 3.9% | 98.5% | 
Cc1nc2ccccn2c(=O)c1CCN1CCC(C(=O)c2ccc(F)cc2)CC1 [PIRENPERONE, 3-(2-{4-[(4-fluorophenyl)carbonyl]piperidin-1-yl}ethyl)-2-methyl-4H-pyrido[1,2-a]pyrimidin-4-one] | 23.1% | 91.6% | 
CN1CCC(=C2c3ccccc3CCc3sccc32)CC1 [PIZOTYLINE MALATE, 1-methyl-4-{6-thiatricyclo[8.4.0.0^{3,7}]tetradeca-1(14),3(7),4,10,12-pentaen-2-ylidene}piperidine; 2-hydroxybutanedioic acid] | 21.4% | 86.5% | 
COc1cc2nc(N3CCN(C(=O)c4ccco4)CC3)nc(N)c2cc1OC [PRAZOSIN HYDROCHLORIDE, 2-{4-[(furan-2-yl)carbonyl]piperazin-1-yl}-6,7-dimethoxyquinazolin-4-amine hydrochloride] | 1.8% | 70.7% | EC50 [1, 4]: 8360 nM; EC50 [1, 6]: < 10000 nM
CCCC(C(=O)OCCN(CC)CC)(c1ccccc1)c1ccccc1 [PROADIFEN, 2-(diethylamino)ethyl 2,2-diphenylpentanoate] | 2.1% | 100% | 
CN(C)CCCN1c2ccccc2Sc2ccccc21 [PROMAZINE, dimethyl[3-(10H-phenothiazin-10-yl)propyl]amine hydrochloride] | 9.2% | 98.7% | 
COc1cc(NC(C)CCCN)c2ncccc2c1 (centres unmarked) [Primaquine, N-(5-aminopentan-2-yl)-6-methoxyquinolin-8-amine; bis(phosphoric acid)] | 4.7% | 91.1% | EC50 ([1]; Trypanosoma cruzi, TULAHUEN, Fibroblast, 120 h, intracellular amastigotes, 5 days, separate assays separated by semicolons, read-out: T. cruzi EC50): 300 nM
COC(=O)C1C2CC3c4[nH]c5cc(OC)ccc5c4CCN3CC2CC(OC(=O)c2cc(OC)c(OC)c(OC)c2)C1OC (centres unmarked) [RESERPINE, methyl 6,18-dimethoxy-17-[(3,4,5-trimethoxyphenyl)carbonyloxy]-3,13-diazapentacyclo[11.8.0.0^{2,10}.0^{4,9}.0^{15,20}]henicosa-2(10),4(9),5,7-tetraene-19-carboxylate] | 4% | 100% | EC50 [1, 4]: 5970 nM; EC50 [1, 6]: < 10000 nM
CNc1ccccc1C(=O)N1CCc2c([nH]c3ccccc23)C1=O [RHETSININE, 2-{[2-(methylamino)phenyl]carbonyl}-1H,2H,3H,4H,9H-pyrido[3,4-b]indol-1-one] | 5.9% | 75.7% | 
C=CCN(C)CCCCCCOc1ccc(C(=O)c2ccc(Br)cc2)c(F)c1 [Ro 48-8071] |  |  | EC50 ([1]; intracellular amastigotes, 5 days, separate assays separated by semicolons, read-out: T. cruzi EC50): 410 nM; CC50 ([2]; 3T3 fibroblasts, 72 hours, separate assays separated by semicolons, read-out: Mammalian cell CC50): 7.4 µM
COc1ccc2c(c1)OC/C(=C/c1ccc(OC)c(OC)c1)C2=O [SAPPANONE A TRIMETHYL ETHER] | 7.5% | 74.6% | 
O=C1C=C2C=CC3CC2(O1)C1CCCCN31 (centres unmarked) [SECURININE, 14-oxa-7-azatetracyclo[6.6.1.0^{1,11}.0^{2,7}]pentadeca-9,11-dien-13-one] | 1.4% | 75% | 
CC1=CC(=O)C2C(C)(C)CCCC2(C)C1(O)CCc1ccoc1 (centres unmarked) [SOLIDAGENONE, 4-[2-(furan-3-yl)ethyl]-4-hydroxy-3,4a,8,8-tetramethyl-1,4,4a,5,6,7,8,8a-octahydronaphthalen-1-one] | 15.1% | 75.8% | 
O=C(CCCN1CCC2(CC1)C(=O)NCN2c1ccccc1)c1ccc(F)cc1 [SPIPERONE, 8-[4-(4-fluorophenyl)-4-oxobutyl]-1-phenyl-1,3,8-triazaspiro[4.5]decan-4-one] | 17.1% | 94.7% | 
